From PMC7366380, “Discovery of a Potent and Selective Covalent Inhibitor and Activity-Based Probe for the Deubiquitylating Enzyme UCHL1, with Antifibrotic Activity” (Journal of the American Chemical Society, 2020)
“And” between values parts separate entries of the source, which are not always exact repeats. Identical values can stand only once.

Tests used:
Assay in all cases: In-cell proteome-wide competitive ABPP, HEK293: other DUBs and proteins
[1] = biological target: T1, DUBs and other proteins in HEK293 cells (Homo sapiens, UniProt Q53GS9); settings: replicates A-C
T1 sequence (Q53GS9 1-565): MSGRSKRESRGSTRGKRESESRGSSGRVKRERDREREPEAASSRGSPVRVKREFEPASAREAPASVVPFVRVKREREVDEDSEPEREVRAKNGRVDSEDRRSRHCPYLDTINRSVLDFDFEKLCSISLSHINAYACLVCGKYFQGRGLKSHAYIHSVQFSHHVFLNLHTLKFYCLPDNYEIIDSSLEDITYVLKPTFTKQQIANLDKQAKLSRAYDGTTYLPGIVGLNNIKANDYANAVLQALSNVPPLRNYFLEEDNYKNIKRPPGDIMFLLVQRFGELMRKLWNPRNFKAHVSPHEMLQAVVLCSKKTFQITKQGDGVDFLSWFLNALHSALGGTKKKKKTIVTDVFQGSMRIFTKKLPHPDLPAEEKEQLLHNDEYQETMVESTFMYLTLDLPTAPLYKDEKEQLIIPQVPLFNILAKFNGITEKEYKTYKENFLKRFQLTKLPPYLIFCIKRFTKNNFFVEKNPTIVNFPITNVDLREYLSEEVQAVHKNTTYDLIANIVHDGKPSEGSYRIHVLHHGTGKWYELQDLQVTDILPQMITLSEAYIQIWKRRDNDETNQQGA

[2] = biological target: DUBs and other proteins in HEK293 cells (Homo sapiens, UniProt P51784); settings: replicates A-C
[3] = biological target: T2, DUBs and other proteins in HEK293 cells (Homo sapiens, UniProt P45974); settings: replicates A-C
T2 sequence (P45974 1-858): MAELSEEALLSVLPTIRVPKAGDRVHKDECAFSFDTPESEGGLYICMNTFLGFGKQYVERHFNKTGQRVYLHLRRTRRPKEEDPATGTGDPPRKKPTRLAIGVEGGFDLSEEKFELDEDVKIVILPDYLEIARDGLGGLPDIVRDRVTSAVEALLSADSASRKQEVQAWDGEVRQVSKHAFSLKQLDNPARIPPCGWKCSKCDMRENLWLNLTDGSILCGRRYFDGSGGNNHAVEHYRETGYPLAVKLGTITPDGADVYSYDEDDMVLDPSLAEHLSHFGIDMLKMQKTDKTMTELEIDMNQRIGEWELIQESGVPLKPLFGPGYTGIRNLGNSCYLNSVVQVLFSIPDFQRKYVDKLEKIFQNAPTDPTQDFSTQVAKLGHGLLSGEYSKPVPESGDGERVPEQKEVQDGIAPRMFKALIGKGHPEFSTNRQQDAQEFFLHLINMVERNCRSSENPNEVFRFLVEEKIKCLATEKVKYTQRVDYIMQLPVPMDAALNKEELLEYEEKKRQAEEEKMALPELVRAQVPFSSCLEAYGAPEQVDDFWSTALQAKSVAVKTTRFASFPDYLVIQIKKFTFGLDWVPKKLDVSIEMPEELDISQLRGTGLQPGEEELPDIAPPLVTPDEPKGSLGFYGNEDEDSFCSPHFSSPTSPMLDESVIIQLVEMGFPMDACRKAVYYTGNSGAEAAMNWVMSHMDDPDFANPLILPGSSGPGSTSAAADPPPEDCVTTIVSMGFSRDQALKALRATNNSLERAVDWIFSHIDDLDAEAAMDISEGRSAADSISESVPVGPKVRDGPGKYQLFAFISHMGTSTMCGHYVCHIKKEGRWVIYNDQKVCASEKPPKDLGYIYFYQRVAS

[4] = biological target: DUBs and other proteins in HEK293 cells (Homo sapiens, UniProt Q7L5N1); settings: for Log2 reporter intensity values, COPS6: 20 nM ABP 2 (10 min), no competitor, TMT replicates
[5] = 20 nM ABP 2 alone, DMSO substract (FC)

Chain of DUBs and other proteins in HEK293 cells (Homo sapiens, UniProt Q7L5N1) (Q7L5N1 whole entry): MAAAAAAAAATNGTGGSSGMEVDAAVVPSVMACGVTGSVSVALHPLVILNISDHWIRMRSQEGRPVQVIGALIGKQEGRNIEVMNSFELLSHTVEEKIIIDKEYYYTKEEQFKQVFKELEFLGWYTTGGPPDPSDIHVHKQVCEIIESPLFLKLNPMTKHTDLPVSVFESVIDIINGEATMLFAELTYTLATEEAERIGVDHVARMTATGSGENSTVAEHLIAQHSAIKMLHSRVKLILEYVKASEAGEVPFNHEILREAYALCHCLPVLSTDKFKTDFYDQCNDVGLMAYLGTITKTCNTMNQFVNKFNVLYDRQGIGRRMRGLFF
Chain of DUBs and other proteins in HEK293 cells (Homo sapiens, UniProt P51784) (P51784 whole entry): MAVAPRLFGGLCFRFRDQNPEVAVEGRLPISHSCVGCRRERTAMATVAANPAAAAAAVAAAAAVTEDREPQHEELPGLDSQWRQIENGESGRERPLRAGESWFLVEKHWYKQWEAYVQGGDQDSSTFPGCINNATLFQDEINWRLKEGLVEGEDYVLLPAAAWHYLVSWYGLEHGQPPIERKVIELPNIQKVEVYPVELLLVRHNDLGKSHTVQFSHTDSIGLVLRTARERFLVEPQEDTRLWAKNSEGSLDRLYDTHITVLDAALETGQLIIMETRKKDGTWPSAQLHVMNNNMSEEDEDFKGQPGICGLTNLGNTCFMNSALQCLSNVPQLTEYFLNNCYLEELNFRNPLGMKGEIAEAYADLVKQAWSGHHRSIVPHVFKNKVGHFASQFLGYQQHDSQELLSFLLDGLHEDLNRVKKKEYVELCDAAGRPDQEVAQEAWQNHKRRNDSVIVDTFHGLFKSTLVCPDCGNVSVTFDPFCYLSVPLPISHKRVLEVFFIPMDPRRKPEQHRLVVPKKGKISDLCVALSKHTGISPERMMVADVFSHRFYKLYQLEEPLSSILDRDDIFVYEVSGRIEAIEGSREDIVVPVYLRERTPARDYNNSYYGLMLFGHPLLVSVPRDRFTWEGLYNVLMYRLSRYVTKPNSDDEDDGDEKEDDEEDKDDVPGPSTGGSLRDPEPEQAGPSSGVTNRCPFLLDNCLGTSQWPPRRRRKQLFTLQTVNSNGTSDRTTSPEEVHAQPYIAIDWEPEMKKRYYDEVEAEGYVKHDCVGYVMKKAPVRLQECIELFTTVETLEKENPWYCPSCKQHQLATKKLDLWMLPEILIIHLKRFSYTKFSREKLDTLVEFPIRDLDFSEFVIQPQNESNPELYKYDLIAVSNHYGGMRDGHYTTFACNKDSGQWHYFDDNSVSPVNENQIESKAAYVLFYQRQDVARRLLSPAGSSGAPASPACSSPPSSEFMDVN

C#Cc1cnc2[nH]cc(-c3cccc4c3CCN4C(=O)[C@@H]3CCCN3C#N)c2c1 [Compound 2]
Log2 reporter intensity values: USP39 [1, 5]: 0.9355 and 0.9539 and 0.9302
Log2 reporter intensity values ([1]; USP39, 20 nM ABP 2, DMSO subtracted): -0.09621 and -0.06804 and -0.1044 and -0.06512 and -0.04668 and -0.07041
Log2 reporter intensity values: USP11 [2, 5]: 0.9204 and 1.006 and 0.9863
Log2 reporter intensity values ([2]; USP11, 20 nM ABP 2, DMSO subtracted): -0.1196 and 0.008385 and -0.01996 and -0.07989 and 0.005492 and -0.01408
Log2 reporter intensity values: USP5 [3, 5]: 0.9172 and 0.9432 and 0.9583
Log2 reporter intensity values ([3]; USP5, 20 nM ABP 2, DMSO subtracted): -0.1247 and -0.08438 and -0.06148 and -0.08313 and -0.05714
Log2 reporter intensity values, COPS6 ([4]; All values): 0.06809 and 0.08942 and 0.01065
Log2 reporter intensity values, COPS6 ([4]; DMSO subtracted): 0.05567 and 0.07701 and -0.001766
Log2 reporter intensity values: COPS6 ([4]; 20 nM ABP 2 alone, DMSO substract (FC), replicates A-C): 1.039 and 1.055 and 0.9988
Log2 reporter intensity values ([4]; COPS6, 20 nM ABP 2, DMSO subtracted, replicates A-C): 0.05567 and 0.07701 and -0.001766 and 0.03923 and 0.05472 and -0.001335
Log2 t-test Difference ([4]; COPS6, ABP 2 - 20 nM): 0.04364
